From PMC11409218, “Metal(triphenylphosphine)-atovaquone Complexes: Synthesis, Antimalarial Activity, and Suppression of Heme Detoxification” (Inorganic Chemistry, 2024) come the findings set out here.

For series [1], the system named is P. falciparum W2 (CQ-resistant strain). Briefly: Antiplasmodial activity, asexual blood stages, HRP2 ELISA-based assay, W2 strain. In kind it is cell-based, Plasmodium falciparum. As to conditions: CQ-resistant W2 strain, 72 h drug incubation, mean of five to seven experiments, read-out: P. falciparum IC50 (±SEM), W2. The method, then: The potency of the metal complexes to inhibit parasite growth was also examined in comparison with ATV.
The two strains were synchronized twice with sorbitol before use,[69] and clonality was verified every 15 days through PCR genotyping of the polymorphic genetic markers msp1 and msp2 and microsatellite loci.[70],[71] Compounds were resuspended in DMSO and then diluted in RPMI-DMSO (99v/1v) to obtain final concentrations ranging from 0.25 to 20000 nM.
After freezing and then thawing, the hemolyzed cultures were homogenized by vortexing the plates. The drug susceptibility assay was performed using the HRP2 ELISA-based assay of the Malaria Ag Celisa kit (ref KM2159, Cellabs PTY LDT, Brookvale, Australia), as described previously.[72]
On the technique in general: In an ELISA, binding on a coated surface is turned into a signal by an enzyme label.

The subject of series [2] is β-hematin crystal formation. Briefly: β-Hematin crystal formation by FTIR spectroscopy. In kind it is biochemical. As to conditions: acid-buffered medium pH 5; 1:3 hematin/compound ratio. The protocol: The ability of these compounds to inhibit the formation of β-hematin crystals was investigated by IR spectroscopy (Figure 2f). Of note, β-hematin crystal formation was assayed in an acid-buffered medium, while hemin titration was assayed at neutral pH. […]. For both ATV and complexes 1–3, there may have been overlapping between a decrease in the (C = O) band of heme species and a (C = O) band of quinone. However, there was no danger of overlaps in the (C–O) band of heme species at 1210 cm^–1, since these species are absent from the drugs.
The conversion of hematin into β-hematin crystals was determined by FTIR spectroscopy as described previously.[52] In a microtube, 20 mg hemin and three equivalents of the compounds were dissolved in 3 mL 0.1 M NaOH solution and stirred for 30 min at 60 °C. Then, 0.3 mL 0.1 M HCl and 1.7 mL sodium acetate buffer (10 M, pH 5) were added at the same temperature. […] After incubation for 120 min, the reaction mixture was cooled on ice for 10 min and then centrifuged and washed with water to remove salts. Resulting crystals were dried and IR spectra were obtained using ATR mode.[66]−[68]

Series [3] can be described thus: Chemical stability in solution (UV–vis, NMR, molar conductivity). In kind it is physicochemical. As to conditions: for ΛM (DMSO) Day 1 / ΛM (DMSO) Day 2 / ΛM (DMSO) Day 3 / ΛM (DMSO) Day 7 / ΛM (DMSO) Day 15: molar conductivity in DMSO, stability; for stability by UV–vis in pure DMSO: primarily within 0–24 h. The method, then: Three distinct methodologies were used to investigate the in-solution stability of metal–ATV complexes 1–3, namely ultraviolet–visible (UV–vis) spectra, NMR, and molar conductivity. All experiments were performed in dimethyl sulfoxide (DMSO) and monitored for at least 72 h, a time frame which coincides with antimalarial drug treatment.
Furthermore, no significant changes in the ^1H NMR and ^31P{^1H} NMR spectra of the complexes were observed up to 72 h in comparison to freshly dissolved solution, denoted as time 0 h (Figures S20–S25). However, for the ^31P{^1H} NMR spectrum of the complex 3, it is observed an increasing intensity of the singlet at 28 ppm that can be attributed to oxidized PPh3, which may be leaving the coordination sphere, but this is relative low when compared with the signal of the complex at −1.76 ppm. Both molar conductivity and NMR data therefore indicate that the metal complexes remained intact in this condition. The observed […] in DMSO is likely related to the fact that the metal atoms are bonded to phosphine ligands, hindering any oxidation of the metal center.
As for the UV–vis analyses, these were used to assess the stability of metal–ATV complexes 1–3 in a solution of pure DMSO or DMSO mixed with aqueous media. To this end, three different conditions were employed in parallel experiments. […] The small change in absorbance observed can be attributed to dynamic equilibrium processes or structural reorganization of the metal complexes. These processes may include partial dissociation of ligands, reorientation of solvent molecules around the metal ion, or even conformational changes of the metal complexes. […] Highlighting that these conditions are the most similar to those employed in the determination of biological activity. Based on this, we concluded that in mixed aqueous/organic media, ATV and complexes 1–3 may undergo slight structural modifications, but no significant ligand exchange reactions occur, as previously observed in the stability studies by NMR.
For the stability studies by NMR spectroscopy, fresh solutions of the complexes in DMSO-d6 with concentrations of 22–25 mM were used. In the studies by UV–vis spectroscopy, three experimental conditions were employed: a) only DMSO, b) 90% DMSO/10% H2O, and c) 90% DMSO/10% RPMI 1640 (Roswell Park Memorial Institute) medium, with concentrations of the complexes 1-3 in 0.28–0.35 μM, 0.25–0.28 μM and 0.32–0.38 μM, respectively. Fresh solutions of the complexes dissolved in DMSO were always used and subsequently diluted with water or RPMI medium.

Another series has as its system J774 cells. Description: Cytotoxicity in mammalian cells (CellTiter-Glo), J774. It counts as cell-based. As to conditions: J774 murine macrophage line; 72 h drug incubation; mean of three experiments; read-out: mammalian cells CC50 (±SEM), J774. The method, then: (§1) Cell lines J774 and HepG2 were incubated with the drug for 72 h, the same time frame as employed to determine antimalarial activity. Cytotoxicity was evaluated in parallel with ATV as a representative parental drug, while doxorubicin was used as a standard cytotoxic drug. These experiments were also used to estimate the in vitro selectivity index (Table 2).
(§2) Doxorubicin chloridrate (Eurofarma, São Paulo, Brazil) was used as a positive control, while untreated cells were employed as negative controls. Bioluminescence readings were performed using a Filtermax F5Multi-Mode instrument (Molecular Devices, Sunnyvale, CA) using the CellTiter-Glo kit (Promega Corporation, Madison, USA). Three independent experiments were performed and CC50 values were calculated.
(In ATP-based viability assays light output follows the ATP content of the culture.)

The next series has as its system HepG2 cells. Briefly: Cytotoxicity in mammalian cells (CellTiter-Glo), HepG2. It counts as cell-based. As to conditions: HepG2 human hepatocellular carcinoma line; 72 h drug incubation; mean of three experiments; read-out: mammalian cells CC50 (±SEM), HepG2. The method, then: as §1, §2

Where two headings read alike, the source gives them in different places.

One may read the IC50 as the concentration that gives 50% inhibition. `O=C1C(O)=C([C@H]2CC[C@H](c3ccc(Cl)cc3)CC2)C(=O)c2ccccc21` [ATV, atovaquone]: the IC50 in series [1] (Plasmodium falciparum) was determined as 0.0021 ± 0.0009 µM. For the same molecule, the “inhibition of β-hematin crystal formation (IR bands 1663 and 1210 cm^–1)” value in series [2] is on record as “unable to inhibit β-hematin crystal formation”. Moreover, in series [3], the “ΛM (DMSO) Day 1” value was found to be 0.93 Ohm-1cm2mol-1, the “ΛM (DMSO) Day 2” value stood at 1.07 Ohm-1cm2mol-1, the “ΛM (DMSO) Day 3” value was found to be 1.23 Ohm-1cm2mol-1 and the “ΛM (DMSO) Day 7” value worked out at 1.68 Ohm-1cm2mol-1. Also, the “ΛM (DMSO) Day 15” value in series [3] stood at 2.04 Ohm-1cm2mol-1.

In general, CC50 refers to the concentration that lowers cell viability or growth by half. On to `O=C1C([O][Cu]([PH](c2ccccc2)(c2ccccc2)c2ccccc2)[PH](c2ccccc2)(c2ccccc2)c2ccccc2)=C([C@H]2CC[C@H](c3ccc(Cl)cc3)CC2)C(=O)c2ccccc21` [Complex 3, [Cu(ATV)(PPh3)2]], for which the CC50 with J774 cells turned out to be 36.1 ± 3.9 µM. In the series with HepG2 cells, the CC50 amounted to 44.3 ± 7.7 µM. Besides, the IC50 in series [1] was 0.0263 ± 0.0069 µM. For the same molecule, the “stability by UV–vis in 90% DMSO mixed with 10% water” value in series [3] (90% DMSO/10% H2O) was “major change in the spectra”. Besides, in series [3], the “ΛM (DMSO) Day 1” value is 3.71 Ohm-1cm2mol-1, the “ΛM (DMSO) Day 2” value was 3.80 Ohm-1cm2mol-1, the “ΛM (DMSO) Day 3” value turned out to be 3.47 Ohm-1cm2mol-1 and the “ΛM (DMSO) Day 7” value was 3.14 Ohm-1cm2mol-1. Further, in series [3], the “ΛM (DMSO) Day 15” value amounted to 3.05 Ohm-1cm2mol-1 and the “stability by UV–vis in pure DMSO” value is reported as “modifications were observed in the electronic spectra”.

Consider [Ag(ATV)(PPh3)2] [Complex 1], for which the CC50 in the series with J774 cells amounted to 9.5 ± 2.2 µM. In the series on HepG2 cells, the CC50 is 14.6 ± 0.9 µM. Besides, in series [1], the IC50 was found to be 0.0265 ± 0.0078 µM. Besides, in series [3], the “ΛM (DMSO) Day 1” value was 12.81 Ohm-1cm2mol-1, the “ΛM (DMSO) Day 2” value turned out to be 13.90 Ohm-1cm2mol-1, the “ΛM (DMSO) Day 3” value turned out to be 16.14 Ohm-1cm2mol-1 and the “ΛM (DMSO) Day 7” value came out at 13.70 Ohm-1cm2mol-1. Moreover, the “ΛM (DMSO) Day 15” value in series [3] worked out at 12.17 Ohm-1cm2mol-1.

[Au(ATV)(PPh3)]·2H2O [Complex 2]: the CC50 in the series on J774 cells is 10.8 ± 3.4 µM. Also, the CC50 in the series on HepG2 cells was 8.9 ± 2.7 µM. The IC50 in series [1] was found to be 0.0052 ± 0.0022 µM. For the same molecule, in series [3], the “ΛM (DMSO) Day 1” value came out at 12.69 Ohm-1cm2mol-1, the “ΛM (DMSO) Day 2” value worked out at 14.51 Ohm-1cm2mol-1, the “ΛM (DMSO) Day 3” value is reported as 12.53 Ohm-1cm2mol-1 and the “ΛM (DMSO) Day 7” value was 12.41 Ohm-1cm2mol-1. In addition, in series [3], the “ΛM (DMSO) Day 15” value worked out at 11.84 Ohm-1cm2mol-1 and the “stability by UV–vis in pure DMSO” value was “modifications were observed in the electronic spectra”.
